# Source: patent US8017326B2, “Methods of modulating cell death based on the Bit-1/AES regulatory pathway” (Sanford-Burnham Medical Research Institute, priority 2002, dated 2011)
# Where a SMILES comes first, the peptide text is derived from it. Where no end group is shown, it is not given here. The star is where a group is joined. Cbz = O=C(OCc1ccccc1)*; CH2F = FC*
# Legend:
# [1] = tested on: CHO cells; assay: Deletion analysis, cell death by trypan blue exclusion; assay type: cell-based, Chinese hamster; conditions: 10 μg construct, trypan blue exclusion 48 hours after transfection
# Protocol: The amino-terminal portion of Bit1 (residues 16-40) is hydrophobic and can serve as a transmembrane domain or signal peptide sequence. When the hydrophobicity of this portion was reduced by substitution of glycine 22 and glycine 38 by serine, Bit1 apoptotic activity was reduced.
# Deletion analysis was performed as follows. The indicated deletion mutants were cloned into vector pEGFP-C1, and 10 μg of each plasmid construct transfected into CHO cells. Cell death was measured by trypan blue exclusion 48 hours after transfection.
# To delineate the pro-apoptotic domain of AES, a series of AES deletion mutants was prepared as amino-terminal fusions with GFP in vector pEGFP-C1. Various AES deletion constructs (10 μg) were transfected into CHO cells, and cell death measured by trypan blue exclusion 48 hours after transfection.
# [2] = tested on: Bit1 in HeLa cells; assay: Localization of C-terminally tagged Bit1 in cells induced to undergo apoptosis; assay type: cell-based; conditions: 0.5 μM staurosporin
# From the text: Colocalization of Bit1 with an endoplasmic reticulum or golgi marker was not observed.
# [3] = tested on: AES-induced apoptosis in 293T cells; assay: Caspase inhibitors and anti-apoptotic proteins against AES; assay type: cell-based, human
# From the text: (§1) 293T cells were also co-transfected with Bit1 or AES and the caspase inhibitor proteins crmA and XIAP.
# [4] = tested on: Bit1-induced apoptosis in 293T cells; assay: Caspase inhibitors and anti-apoptotic proteins against Bit1; assay type: cell-based, human; conditions: cytosolic Bit1
# From the text: as §1
# [5] = tested on: Bit1-induced apoptosis in HEK 293 cells; assay: Co-transfection of Bit1 with anti-apoptotic proteins; assay type: cell-based, human; conditions: HEK 293 cells co-transfected with Bit1
# Protocol: Co-transfections were performed with cells plated on non-coated dishes transfected with 5 μg Bit1 plasmid alone or together with 10 μg dominant negative (DN) R-Ras, or activated H-Ras plasmid (Zou et al., Proc. Natl. Acad. Sci. USA 96: 13813-13818 (1999)). […] Expression of the transfected proteins was confirmed by immunoblotting. Apoptosis was assayed as described above.
# [6] = tested on: Bit1-AES complex in HeLa cells; assay: Co-immunoprecipitation of Bit1-AES complex, cells plated on fibronectin or collagen; assay type: cell-based; conditions: HeLa cells plated on fibronectin versus collagen, quantification of gel bands, 24 h after transfection
# Protocol: In these experiments, HeLa cells were plated on fibronectin or collagen before transfection with pCMV-Myc-Bit1 (3 μg) and pCMV-flag-AES (3 μg) plasmids. Cell lysates were harvested 24 h after transfection and immunoprecipitated with anti-flag and immunoblotted with anti-myc. The total amount of DNA used was adjusted to 10 μg with empty vector in each transfection. The expression of the transfected AES in each sample was confirmed by immunoblotting 20 μl of the whole extract with anti-flag as is shown in FIG. 6C, lower boxes in B and C.
# Thus, a low level of Bit1/AES complex correlated with cell survival and a high level is associated with apoptosis.
# [7] = tested on: Bit1-induced apoptosis in HEK 293 cells; assay: Extracellular matrix proteins and Bit1-induced apoptosis, trypan blue staining; assay type: cell-based, human; conditions: HEK 293 cells plated onto coated dishes, 10 μg Bit1 plasmid, 48 hours
# Protocol: Several extracellular matrix proteins were assayed for the ability to modulate Bit1-mediated apoptosis. Cells were plated onto bacterial culture dishes pre-coated overnight with fibronectin (Chemicon; Temecula; CA), vitronectin (SIGMA; St. Louis, Mo.) or type I collagen (SIGMA), and transfected and assayed for apoptosis as described above.
# To analyze integrin involvement in protecting attached cells against the pro-apoptotic effect of Bit1, Bit1 cell lines expressing either α5β1 or αvβ1 as the main fibronectin receptor were compared. The two cell lines attach equally well to fibronectin but, like cytoplasmically truncated α5β1, αvβ1 fails to protect cells against apoptosis induced by serum deprivation (Zhang et al., supra, 1995; and Matter and Ruoslahti, supra, 2001).
# Experiments with extracellular matrix proteins were performed as follows. Cells were plated onto uncoated tissue culture plates or onto bacterial culture plates coated with fibronectin, vitronectin or collagen, and allowed to attach in the presence of serum. The attachment was equal on all of these surfaces. The cells were then transfected with 10 μg of Bit1 expression plasmid; where indicated, cells were treated with a control IgG of unrelated specificity or monoclonal anti-human α5 antibody (Chemicon), both at 10 μg/ml. Cell death was measured by trypan blue staining 48 hours after the transfection.
compound,measurement,setting,value
"AES residues 57-88: AES deletion mutant, amino-terminal fusion with GFP (SEQ ID NO:9) (MQRHYVMYYEMSYGLNIEMHKQAEIVKRLNGI; also: amino-terminal fusion with GFP; UniProt Q08117 57-88, looked up, fragment)",pro-apoptotic activity of deletion constructs,[1],efficiently induced apoptosis
"AES residues 1-56: AES deletion mutant, amino-terminal fusion with GFP (MMFPQSRHSGSSHLPQQLKFTTSDSCDRIKDEFQLLQAQYHSLKLECDKLASEKSE; cysteine pairing not given here; also: amino-terminal fusion with GFP; UniProt Q08117 1-56, looked up, fragment)",pro-apoptotic activity of deletion constructs,[1],no apoptotic activity
CN[C@@H]1C[C@H]2O[C@@](C)([C@@H]1OC)n1c3ccccc3c3c4c(c5c6ccccc6n2c5c31)C(=O)NC4 [staurosporin],localization of C-terminally tagged Bit1,[2],released into the cytoplasm
COC(=O)C[C@H](NC(=O)[C@H](C)NC(=O)[C@@H](NC(=O)OCc1ccccc1)C(C)C)C(=O)CF [z-VAD-fmk] (Cbz-Val-Ala-Asp(OMe)-CH2F),effect on apoptosis induced by AES,[3],ineffective
same,effect on apoptosis induced by Bit1,[4],ineffective
"Bcl-2: anti-apoptotic protein, expression construct pcDNA3-Bcl-2",effect on apoptosis induced by AES,[3],partially effective
same,effect on apoptosis induced by Bit1,[4],no effect
same,effect on apoptosis induced by Bit1,[5],little or no effect
fibronectin,reduction in Bit1/AES complex on fibronectin,[6],approximately 75%
same,protection from Bit1-induced apoptosis,[7],largely protected
collagen: type I collagen coated on culture dishes (SIGMA),protection from Bit1-induced apoptosis,[7],could not confer the same protective effect
"AES residues 57-105: AES deletion mutant, amino-terminal fusion with GFP (SEQ ID NO:8) (MQRHYVMYYEMSYGLNIEMHKQAEIVKRLNGICAQVLPYLSQEHQQQVL; also: amino-terminal fusion with GFP; UniProt Q08117 57-105, looked up, fragment)",pro-apoptotic activity of deletion constructs,[1],efficiently induced apoptosis
